The IC50 is the point on the concentration scale where inhibition reaches its midpoint.

This is an account of results in publication PMC8073005, “Antifungal Activity and DNA Topoisomerase Inhibition of Hydrolysable Tannins from Punica granatum L” (International Journal of Molecular Sciences, 2021).

The test system of test [1] is Cryptococcus neoformans ATCC 11240. In words: MIC, broth microdilution (human pathogens). Particulars: Cryptococcus neoformans, ATCC11240, 48 h, read-out: Minimum inhibitory concentration (MIC). The class given is cell-based.
In test [2] the test system is Cryptococcus var. grubii H99 serotype A. As to the kind of experiment: MIC, broth microdilution (human pathogens). It is filed as cell-based. Particulars: Cryptococcus, 48 h, read-out: Minimum inhibitory concentration (MIC). In general terms: Broth dilution looks for growth in wells or tubes with falling amounts of substance.
For the next test, the system named is Candida albicans H. As to the kind of experiment: MIC, broth microdilution (human pathogens). The class given is cell-based. Particulars: Candida albicans, 48 h, read-out: Minimum inhibitory concentration (MIC).
In a further test the test system is Candida zeylanoides 33. As to the kind of experiment: MIC, broth microdilution (human pathogens). The class given is cell-based. Particulars: Dujonia zeylanoides, 33, 48 h, read-out: Minimum inhibitory concentration (MIC).
Another test deals with Candida parapsilosis 7. As to the kind of experiment: MIC, broth microdilution (human pathogens). It is filed as cell-based. The note with it: Lodderomyces parapsilosis, 7, 48 h, read-out: Minimum inhibitory concentration (MIC).
The test system of a further test is Candida albicans 1. In words: MIC, broth microdilution (human pathogens). The class given is cell-based. The note with it: Candida albicans, 1, 48 h, read-out: Minimum inhibitory concentration (MIC).
The test system of another test is Coniella granati M0_C2. In words: MIC, micro-spectrophotometric growth assay (phytopathogens). It is filed as cell-based.
The next test deals with Candida albicans 40. As to the kind of experiment: MIC, broth microdilution (human pathogens). It is filed as cell-based. Particulars: Candida albicans, 40, 48 h, read-out: Minimum inhibitory concentration (MIC).
Test [3] concerns Candida albicans SC 5314. In words: Time-kill curves. It is filed as cell-based. The note with it: C. albicans SC 5314; compound at its MIC value; 0–96 h.
The test system of another test is Candida albicans 41. As to the kind of experiment: MIC, broth microdilution (human pathogens). Particulars: Candida albicans, 41, 48 h, read-out: Minimum inhibitory concentration (MIC). It is filed as cell-based.
The subject of another test is Candida strains. In words: Agar Disk Diffusion Assay, Candida strains. It is filed as cell-based. The note with it: 100 µg.
Test [4] concerns Cryptococcus neoformans B 3501. As to the kind of experiment: MIC, broth microdilution (human pathogens). It is filed as cell-based. The note with it: Cryptococcus neoformans, B3501, 48 h, read-out: Minimum inhibitory concentration (MIC).
A further test deals with Candida albicans 2. As to the kind of experiment: MIC, broth microdilution (human pathogens). It is filed as cell-based. Particulars: Candida albicans, 2, 48 h, read-out: Minimum inhibitory concentration (MIC).
For test [5], the system named is Candida albicans SC 5314. In words: MIC, broth microdilution (human pathogens). It is filed as cell-based. Particulars: Candida albicans, SC5314, 48 h, read-out: Minimum inhibitory concentration (MIC).
The subject of test [6] is Alternaria alternata AL19. As to the kind of experiment: MIC, micro-spectrophotometric growth assay (phytopathogens). It is filed as cell-based. Particulars: Alternaria alternata AL19; PDB, 24 °C, dark; imazalil at label dose; read-out: Minimum inhibitory concentration (MIC).
The subject of the next test is Cryptococcus 67. As to the kind of experiment: MIC, broth microdilution (human pathogens). The note with it: Cryptococcus, 67, 48 h, read-out: Minimum inhibitory concentration (MIC). It is filed as cell-based.
The test system of test [7] is Colletotrichum acutatum s.s. M146-2. As to the kind of experiment: MIC, micro-spectrophotometric growth assay (phytopathogens). The class given is cell-based, Colletotrichum acutatum sensu stricto.
Test [8] addresses T1, topoisomerase I from Candida albicans (Candida albicans, UniProt Q00313).
T1 sequence (Q00313 1-778): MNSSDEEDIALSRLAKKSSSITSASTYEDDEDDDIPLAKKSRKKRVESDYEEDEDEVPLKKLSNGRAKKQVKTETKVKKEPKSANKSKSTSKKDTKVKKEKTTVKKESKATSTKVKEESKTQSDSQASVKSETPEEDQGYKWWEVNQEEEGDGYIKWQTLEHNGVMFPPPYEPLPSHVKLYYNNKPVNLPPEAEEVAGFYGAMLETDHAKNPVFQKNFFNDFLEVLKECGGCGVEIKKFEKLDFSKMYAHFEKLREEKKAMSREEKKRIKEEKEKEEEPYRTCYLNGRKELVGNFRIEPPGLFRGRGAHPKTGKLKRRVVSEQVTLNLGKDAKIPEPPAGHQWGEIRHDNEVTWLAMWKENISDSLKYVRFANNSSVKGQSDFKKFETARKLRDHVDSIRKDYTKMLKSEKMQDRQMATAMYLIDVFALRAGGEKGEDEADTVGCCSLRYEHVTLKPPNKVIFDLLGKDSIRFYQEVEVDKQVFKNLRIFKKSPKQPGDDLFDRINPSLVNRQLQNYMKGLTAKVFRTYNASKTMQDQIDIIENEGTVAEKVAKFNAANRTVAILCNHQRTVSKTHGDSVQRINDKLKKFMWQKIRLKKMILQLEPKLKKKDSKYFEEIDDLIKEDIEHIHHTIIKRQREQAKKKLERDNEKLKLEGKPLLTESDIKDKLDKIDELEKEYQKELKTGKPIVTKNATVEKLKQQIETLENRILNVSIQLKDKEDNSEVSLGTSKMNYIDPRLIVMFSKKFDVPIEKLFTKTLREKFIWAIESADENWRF
As to the kind of experiment: Topoisomerase I supercoiled DNA relaxation inhibition. The class given is biochemical.

A further test deals with Candida parapsilosis. In words: MIC, broth microdilution (human pathogens). The class given is cell-based. The note with it: Lodderomyces parapsilosis, 48 h, read-out: Minimum inhibitory concentration (MIC).
The test system of the next test is Botrytis cinerea B2. In words: MIC, micro-spectrophotometric growth assay (phytopathogens). The class given is cell-based. Particulars: Botrytis cinerea B2; PDB, 24 °C, dark; imazalil at label dose; read-out: Minimum inhibitory concentration (MIC).
Test [9] concerns other genera tested (other fungi strains). In words: Agar Disk Diffusion Assay, other genera. It is filed as cell-based. The note with it: 100 µg. As to the method: The antifungal activity of pomegranate compounds was evaluated against 19 clinically isolated fungal strains, including nine belonging to Candida albicans species, two belonging to Aspergillus genus, one belonging to Cryptococcus genus, and one Saccharomyces cerevisiae. The C. albicans strains were isolated on CHROMID agar, Aspergillus and Cryptococcus genus were isolated on SDA-CAF and one Saccharomyces cerevisiae on SDA. All the isolates were confirmed by matrix-assisted laser desorption ionization (MALDI) time-of-flight mass spectrometry (TOF/MS). Strains from the American Type Culture Collection (ATCC) were included. All strains were maintained in SDB with 20% (w/v) glycerol at −80 °C until use and sub-cultured in SDA before each test.
The preliminary determination of the antifungal activity of the target compounds (punicalagin, punicalin, ellagic acid, and gallic acid) from pomegranate was carried out by means of the agar disk diffusion assay, according to the standard procedure of the Clinical and Laboratory Standards Institute, with slight modifications. Plates containing SDA were uniformly spread with 100 μL of 10^3 conidia/mL of each strain suspension. […] Disks containing fluconazole (25 μg), amphotericin B (25 μg) and DMSO (20 μL) were used as the positive and the negative control, respectively. The antifungal activity of pomegranate compounds was evaluated by measuring the diameter of the clear inhibition zone formed right around the disks after 48 h incubation at 30 ± 1 °C. The experiment was carried out in triplicate.
In general terms: A growth-free zone around the sample is the usual read-out of agar diffusion tests.

Test [10] deals with C. albicans 1 (clinically isolated strain). In words: Time-kill curves. The class given is cell-based, Candida albicans. The note with it: compound at its MIC value, 0–96 h.
The test system of test [11] is Saccharomyces cerevisiae 42. As to the kind of experiment: MIC, broth microdilution (human pathogens). The note with it: Saccharomyces cerevisiae, 42, 48 h, read-out: Minimum inhibitory concentration (MIC). The class given is cell-based.
Test [12] has as its system Candida albicans ATCC 10321. As to the kind of experiment: MIC, broth microdilution (human pathogens). The class given is cell-based. Particulars: Candida albicans, ATCC10321, 48 h, read-out: Minimum inhibitory concentration (MIC).
The subject of a further test is Aspergillus candidus 3. In words: MIC, broth microdilution (human pathogens). It is filed as cell-based. The note with it: Aspergillus candidus, 3, 48 h, read-out: Minimum inhibitory concentration (MIC).
The next test relates to Aspergillus candidus 25. In words: MIC, broth microdilution (human pathogens). It is filed as cell-based. The note with it: Aspergillus candidus, 25, 48 h, read-out: Minimum inhibitory concentration (MIC).
Test [13] has as its system Aspergillus brasiliensis ATCC 16404. As to the kind of experiment: MIC, broth microdilution (human pathogens). It is filed as cell-based. The note with it: Aspergillus brasiliensis, ATCC16404, 48 h, read-out: Minimum inhibitory concentration (MIC).
The test system of a further test is Candida albicans 44. As to the kind of experiment: MIC, broth microdilution (human pathogens). Particulars: Candida albicans, 44, 48 h, read-out: Minimum inhibitory concentration (MIC). It is filed as cell-based.
The next test deals with DNA topoisomerase I. Set-up: method as in PMID 1324981. The note with it: reported; cited from earlier work.

As to `O=C1O[C@H]2[C@@H]3OC(=O)c4cc(O)c(O)c(O)c4-c4c(O)c(O)c5oc(=O)c6c(c(O)c(O)c7oc(=O)c4c5c76)-c4c(cc(O)c(O)c4O)C(=O)OC[C@H]3OC(O)[C@@H]2OC(=O)c2cc(O)c(O)c(O)c2-c2c1cc(O)c(O)c2O` (mixture of isomers) [Punicalagin, punicalagin], the MIC in test [1] was found to be 23 µM; in [2], 92.2 µM; in the test with Candida albicans H it was 92.2 µM; in the test with Candida zeylanoides 33, 92.2 µM; in the test with Candida parapsilosis 7 it was 5.5 µM; with Candida albicans 1 it was 1.4 µM. For the same compound, the MIC in the test on Coniella granati M0_C2 (Coniella granati M0_C2, PDB, 24 °C, dark, imazalil at label dose, read-out: Minimum inhibitory concentration (MIC)) stood at 184.4 µM; in the test with Candida albicans 40, 5.5 µM; with Candida albicans 41, 92.2 µM; in test [4], 46.1 µM; in the test with Candida albicans 2 it was 1.4 µM; in the test on Candida albicans SC 5314 [5], 0.7 µM. The MIC in [6] was 92.2 µM; in the test with Cryptococcus 67 it was 92.2 µM; in test [7] (Colletotrichum acutatum s.s. M146-2, PDB, 24 °C, dark, imazalil at label dose, read-out: Minimum inhibitory concentration (MIC)) it was 184.4 µM; in the test with Candida parapsilosis it was 0.7 µM; in the test on Botrytis cinerea B2 it was 92.2 µM; in test [11] it was 1.4 µM. Also, the MIC turned out to be 0.7 µM in test [12]; 92.2 µM with Aspergillus candidus 3; 92.2 µM in the test with Aspergillus candidus 25; 2.8 µM in test [13]; 92.2 µM in the test with Candida albicans 44. Further, the growth reduction in the test on Coniella granati M0_C2 (C. granati, 48 h of incubation) is reported as 83%; in test [7] (C. acutatum s.s., at 48 h) it was 66%. In addition, the “time-kill curve (susceptibility time-course)” value in the test on Candida albicans SC 5314 [3] is recorded as “major reduction in the number of C. albicans SC 5314 cells”; in [10] it was “preserved the antifungal activity until the end of the test (96 h)”. Also, the “share of Candida strains with inhibition zone from 21 to 30 mm” value in the test with Candida strains was 82%. In [8], this compound returned an IC50 of 9 ± 1.2 µM. The “share of other genera tested with inhibition zone from 21 to 30 mm” value in test [9] is 63%.

Take `O=C(O)C[C@@H]1C(=O)O[C@H]2[C@@H]3OC(=O)c4cc(O)c(O)c(O)c4-c4c(cc(O)c(O)c4O)C(=O)OC[C@H]2O[C@@H](OC(=O)c2cc(O)c(O)c(O)c2)[C@@H]3OC(=O)c2cc(O)c(O)c3c2[C@H]1[C@H](O)C(=O)O3` [CHEMBL525240, Chebulagic acid]: the IC50 on DNA topoisomerase I is 50 nM.
